Data as given in ChEMBL document CHEMBL2331501, “3H-1,2,4-Dithiazol-3-one compounds as novel potential affordable antitubercular agents” (Bioorg Med Chem Lett, 2013).
Values after ≈ are worked out from the molar mass of the structure shown.

Tests used:
[1] = test system: Mycobacterium tuberculosis; assay: Antitubercular activity against Mycobacterium tuberculosis H37Rv ATCC 27294 after 11 days by serial dilution method; type: functional; conditions: H37Rv ATCC 27294, 264 h
[2] = Cytotoxicity against human L02 cells assessed as inhibitory ratio at 100 uM after 48 hrs by MTT assay; type: cell-based; conditions: read-out: INH

SMILES	MIC90 [1]	MIC99 [1]	cytotoxicity at 48 h, 100 µM [2]
O=c1nc(-c2cc(F)c(Cl)nc2Cl)ss1	32 µg/mL (≈ 113 µM)	4 µg/mL (≈ 14.1 µM)	24.3%
O=c1nc(-c2cnccn2)ss1	32 µg/mL (≈ 162 µM)	16 µg/mL (≈ 81.1 µM)	56.7%
O=c1nc(-c2cccnc2Cl)ss1	32 µg/mL (≈ 139 µM)	16 µg/mL (≈ 69.4 µM)	34.4%
O=c1nc(-c2ccc([N+](=O)[O-])cc2Cl)ss1	32 µg/mL (≈ 116 µM)	16 µg/mL (≈ 58.2 µM)	28.6%
O=c1nc(-c2ccccc2[N+](=O)[O-])ss1	16 µg/mL (≈ 66.6 µM)	32 µg/mL (≈ 133 µM)	33%
Cc1ccc(-c2nc(=O)ss2)s1	16 µg/mL (≈ 74.3 µM)	32 µg/mL (≈ 149 µM)	36.3%
Nc1ccc(-c2nc(=O)ss2)cc1	16 µg/mL (≈ 76.1 µM)	32 µg/mL (≈ 152 µM)	46.3%
O=c1nc(-c2ccc3ccccc3c2)ss1	32 µg/mL (≈ 130 µM)	16 µg/mL (≈ 65.2 µM)	47.2%
COc1ccc(OC)c(-c2nc(=O)ss2)c1	32 µg/mL (≈ 125 µM)	32 µg/mL (≈ 125 µM)	23.7%
COc1cccc(-c2nc(=O)ss2)c1	16 µg/mL (≈ 71 µM)	32 µg/mL (≈ 142 µM)	38.6%
Cc1ccccc1-c1nc(=O)ss1	16 µg/mL (≈ 76.4 µM)	32 µg/mL (≈ 153 µM)	18.6%
O=c1nc(-c2ccc(F)cc2)ss1	32 µg/mL (≈ 150 µM)	16 µg/mL (≈ 75 µM)	33.7%
O=c1nc(-c2ccc(Cl)cc2)ss1	64 µg/mL (≈ 279 µM)	32 µg/mL (≈ 139 µM)	46%
Cc1sc(-c2nsc(=O)o2)cc1[N+](=O)[O-]	2 µg/mL (≈ 8.19 µM)	1 µg/mL (≈ 4.09 µM)	53.8%
O=c1oc(-c2cc(F)c(Cl)nc2Cl)ns1	16 µg/mL (≈ 59.9 µM)	8 µg/mL (≈ 30 µM)	15.1%
O=c1oc(-c2cccnc2Cl)ns1	8 µg/mL (≈ 37.3 µM)	8 µg/mL (≈ 37.3 µM)	31.4%
O=c1oc(-c2ccc([N+](=O)[O-])cc2Cl)ns1	16 µg/mL (≈ 61.9 µM)	16 µg/mL (≈ 61.9 µM)	54.6%
O=c1oc(-c2ccccc2[N+](=O)[O-])ns1	8 µg/mL (≈ 35.7 µM)	16 µg/mL (≈ 71.4 µM)	32.4%
Cc1ccc(-c2nsc(=O)o2)s1	8 µg/mL (≈ 40.1 µM)	16 µg/mL (≈ 80.3 µM)	25.1%
Nc1ccc(-c2nsc(=O)o2)cc1	16 µg/mL (≈ 82.4 µM)	16 µg/mL (≈ 82.4 µM)	39.5%
O=c1oc(-c2ccc3ccccc3c2)ns1	16 µg/mL (≈ 69.8 µM)	16 µg/mL (≈ 69.8 µM)	26.2%
COc1ccc(OC)c(-c2nsc(=O)o2)c1	16 µg/mL (≈ 66.9 µM)	16 µg/mL (≈ 66.9 µM)	25.3%
COc1cccc(-c2nsc(=O)o2)c1	8 µg/mL (≈ 38.2 µM)	16 µg/mL (≈ 76.5 µM)	15%
Cc1ccccc1-c1nsc(=O)o1	8 µg/mL (≈ 41.4 µM)	16 µg/mL (≈ 82.8 µM)	18.1%
O=c1oc(-c2ccccc2Cl)ns1	8 µg/mL (≈ 37.4 µM)	8 µg/mL (≈ 37.4 µM)	20.6%
O=c1oc(-c2ccc(F)cc2)ns1	16 µg/mL (≈ 81.1 µM)	16 µg/mL (≈ 81.1 µM)	21.7%
O=c1oc(-c2ccc(Cl)cc2)ns1	32 µg/mL (≈ 150 µM)	4 µg/mL (≈ 18.7 µM)	39.6%
O=c1nc(-c2ccccc2Cl)ss1	8 µg/mL (≈ 34.8 µM)	16 µg/mL (≈ 69.7 µM)	40.1%
O=c1oc(-c2cnccn2)ns1	16 µg/mL (≈ 88.3 µM)	4 µg/mL (≈ 22.1 µM)	31.4%
